Read-outs that look alike come from different tables or passages of the source.
Assay: Pharmacokinetics after single intravenous drip infusion, plasma LC-MS/MS
Type: in vivo, Philippine macaques
Settings: male, plasma, 0.58 mg/kg, plasma; for AUC(0-t) / AUC(0-inf) / clearance / Cmax / half-life / Vd / MRT last / MRT inf / Tmax: cynomolgus monkey, iv, AST-3424 0.58 mg/kg single intravenous infusion; for Tmax: read-out: Tmax, Mean
Protocol: AST-3424 and AST-3424-D6 (i.e. the compound of formula I) were administered to Philippine macaques by intravenous drip infusion, and blood samples were collected at different appointed times. LC-MS/MS was used to determine concentrations of the test substances in plasma of the Philippine macaques after administration, and relevant pharmacokinetic parameters were calculated.
Preparation method: 0.447 ml of AST-3424 (0.2 mg/ml) and 0.481 ml of AST-3424-D6 (0.2 mg/ml) were added into 104.272 ml of the dissolvent, respectively, and mixed for 5 minutes to obtain colorless and clarified solutions with pH 7.0.
The four male Philippine macaques were purchased from Guangxi Xiongsen Primate Development Experiment Co., Ltd. All Philippine macaques were healthy with qualified medical examination and no abnormality. Three of animals were used for the experiment, and one of them was used to prepare blank plasma.
About 0.8 ml of blood samples were collected through femoral vein and anticoagulated with heparin sodium. Appointed times of blood collection were before administration, 0.17, 0.25, 0.5, 0.75, 1, 2, and 4 hours after administration.
The blood samples were placed on ice after collection. Next, plasma samples were separated by centrifugation, and centrifugation conditions were 3500 rpm for 10 minutes at 4° C. Then, the collected plasma samples were stored at −80° C. until analysis. The plasma samples were analyzed by LC-MS/MS by an analysis department of an experimental institution. Besides, Lower limit of quantifications (LLOQ) of AST-3424 and AST-3424-D6 detection were 1 ng/ml. The accuracy of analysis results of an accompanying standard curve and a quality control samples all met the relevant requirements of biological analysis (the accuracy of the quality control samples exceeding 66.7% was between 85˜115%) in a process of the sample detection.
According to average blood concentration data of each group at each appointed time, the pharmacokinetic parameters of the compounds were respectively computed by a pharmacokinetic computing software, a non-compartmental model. In addition, the pharmacokinetic parameters were AUC0-t, AUC0-∞, MRT0-∞, Cmax, Tmax, t1/2, etc. In the case of the concentrations of the samples whose concentration being lower than a lower limit of quantification, the following schemes were used to compute the pharmacokinetic parameters. The samples sampled before reaching Cmax shall be computed as zero value, while the samples sampled after reaching Cmax shall be computed as non-quantifiable (marked as “BLQ”).
After a single intravenous infusion of the compounds AST-3424 and AST-3424-D6 was administered to the Philippine macaques, the whole blood samples of the corresponding animals were collected at the appointed times. Next, the whole blood samples were processed and biologically analyzed to obtain concentrations of the compounds in the plasma at the different appointed times. Results of the assay were listed in Table 14 below, and corresponding means of the plasma-drug concentration-time curves are shown in FIG. 3.
According to the plasma-drug concentration data of each drug group, the pharmacokinetic parameters of each compound group were computed using the non-compartmental model of the pharmacokinetic computing software. The pharmacokinetic

[1] = Philippine macaque, intravenous, AST-3424 intravenous drip infusion 0.58 mg/kg, individual animals 101, 102, 103, read-out: Plasma-drug concentration
[2] = Philippine macaque, intravenous, AST-3424 intravenous drip infusion 0.58 mg/kg, read-out: Plasma-drug concentration, mean

With `C[C@H](OP(=O)(N1CC1)N1CC1)c1ccc([N+](=O)[O-])c(Oc2cccc(C(=O)N(C)C)c2)c1` [AST-3424, (S)-1-(3-(3-N,N-Dimethylaminocarbonyl)phenoxy-4-nitrophenyl)-1-ethyl-N,N′-bis(ethylene) phosphoramidate] the AUC(0-t) (Philippine macaque, individual animals 101, 102, 103, read-out: AUC(0−t)) was 404 ng·h/mL, the AUC(0-inf) (Philippine macaque, individual animals 101, 102, 103, read-out: AUC(0−∞)) was 409 ng·h/mL and the clearance (Philippine macaque, individual animals 101, 102, 103, read-out: Cl (converted)) was 23.6 mL/min/kg. For the same molecule, the Cmax (Philippine macaque, individual animals 101, 102, 103, read-out: Cmax) was 696 ng/mL, the half-life (Philippine macaque, individual animals 101, 102, 103, read-out: T1/2 (converted)) was 6.6 min and the Vd (Philippine macaque, individual animals 101, 102, 103, read-out: Vss) was 0.202 L/kg. For the same molecule, the Vd (Philippine macaque, individual animals 101, 102, 103, read-out: Vz) was 0.231 L/kg, the AUC(0-t) (Philippine macaque, read-out: AUC(0−t), Mean) was 436 ± 35.6 ng·h/mL and the AUC(0-inf) (Philippine macaque, read-out: AUC(0−∞), Mean) was 438 ± 33.5 ng·h/mL. For the same molecule, the clearance (Philippine macaque, read-out: Cl, Mean (converted)) was 22.1 mL/min/kg, the Cmax (Philippine macaque, read-out: Cmax, Mean) was 725 ± 66.6 ng/mL and the MRT last (Philippine macaque, read-out: MRT(0−t), Mean) was 10.2 ± 1.8 min. For the same molecule, the MRT inf (Philippine macaque, read-out: MRT(0−∞), Mean) was 10.2 ± 1.8 min, the half-life (Philippine macaque, read-out: T1/2, Mean (converted)) was 9.6 min and the Tmax (Philippine macaque) was 18.6 min. The Vd (Philippine macaque, read-out: Vz, Mean) was 0.306 L/kg, the concentration at 0.17 hr [1] was 638 ng/mL and the concentration at 0.17 hr [2] was 708 ng/mL. The concentration at 0.25 h [1] was 649 ng/mL, the concentration at 0.25 h [2] was 691 ng/mL and the concentration at 0.5 h [1] was 677 ng/mL. For the same molecule, the concentration at 0.5 h [2] was 695 ng/mL, the concentration at 0.75 h [1] was 152 ng/mL and the concentration at 0.75 h [2] was 143 ng/mL. It also gave a concentration at 1 h [1] of 57.3 ng/mL, a concentration at 1 h [2] of 46.6 ng/mL and a concentration at 2 h (Philippine macaque, intravenous, AST-3424 intravenous drip infusion 0.58 mg/kg, 2 hr, individual animals 101, 102, 103, LLOQ 1 ng/ml, read-out: Plasma-drug concentration) of 1.29 ng/mL. The concentration at 2 hr (Philippine macaque, intravenous, AST-3424 intravenous drip infusion 0.58 mg/kg, 2 hr, read-out: Plasma-drug concentration, mean) was 1.4 ng/mL, the MRT last (individual animals 101, 102, 103, read-out: MRT(0−t)) was 7.8 min and the MRT inf (individual animals 101, 102, 103, read-out: MRT(0−∞)) was 8.4 min. The Tmax was 18.4 min and the Vd (read-out: Vss, Mean) was 0.226 L/kg.
